According to ChEMBL document CHEMBL4422673, “Discovery, synthesis and characterization of a series of (1-alkyl-3-methyl-1H-pyrazol-5-yl)-2-(5-aryl-2H-tetrazol-2-yl)acetamides as novel GIRK1/2 potassium channel activators” (Bioorg Med Chem Lett, 2019):
The source made the active and inactive calls. The rule behind the calls is not given here.

Key:
Kir3.1/Kir3.2 [1] = target: T1, Kir3.1/Kir3.2 (Homo sapiens, UniProt P48051+P48549); test: (§1) Activation of human GIRK1/2 expressed in HEK293 cells co-expressing rat mGlu8 by thallium flux assay; assay type: cell-based
T1 sequence (P48549 whole entry): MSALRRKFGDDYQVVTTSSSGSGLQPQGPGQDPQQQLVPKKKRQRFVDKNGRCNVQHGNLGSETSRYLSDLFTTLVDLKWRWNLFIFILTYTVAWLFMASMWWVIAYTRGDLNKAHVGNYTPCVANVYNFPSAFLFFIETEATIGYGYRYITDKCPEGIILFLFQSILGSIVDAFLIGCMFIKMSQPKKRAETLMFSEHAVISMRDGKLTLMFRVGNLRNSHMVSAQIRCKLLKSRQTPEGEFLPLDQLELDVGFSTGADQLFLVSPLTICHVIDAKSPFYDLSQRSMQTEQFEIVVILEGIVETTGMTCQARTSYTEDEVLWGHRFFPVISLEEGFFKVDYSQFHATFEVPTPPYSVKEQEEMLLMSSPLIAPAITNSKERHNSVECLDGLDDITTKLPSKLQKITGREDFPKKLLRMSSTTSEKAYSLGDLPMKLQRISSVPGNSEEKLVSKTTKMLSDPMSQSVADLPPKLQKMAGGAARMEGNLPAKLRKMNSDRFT
T1 sequence (P48051 whole entry): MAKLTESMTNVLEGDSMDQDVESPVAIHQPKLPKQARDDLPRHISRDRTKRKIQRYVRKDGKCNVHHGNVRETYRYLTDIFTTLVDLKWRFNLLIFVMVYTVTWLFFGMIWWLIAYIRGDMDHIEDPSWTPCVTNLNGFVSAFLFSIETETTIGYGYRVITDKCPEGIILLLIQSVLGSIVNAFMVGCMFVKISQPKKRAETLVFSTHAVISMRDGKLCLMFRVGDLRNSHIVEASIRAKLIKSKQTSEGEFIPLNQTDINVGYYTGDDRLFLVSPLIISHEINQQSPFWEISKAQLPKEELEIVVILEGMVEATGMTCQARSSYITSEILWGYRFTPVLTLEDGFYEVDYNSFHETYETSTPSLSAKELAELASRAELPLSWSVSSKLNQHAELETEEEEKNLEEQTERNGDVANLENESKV

[2] = target: T2, Kir3.1/Kir3.2 (Homo sapiens) (UniProt P48549+P48051); test: Activation of human GIRK1/2 expressed in HEK293 cells co-expressing rat mGlu8 by thallium flux assay relative to control; assay type: cell-based
Kir3.1/Kir3.4 [3] = target: T3, Kir3.1/Kir3.4 (Homo sapiens, UniProt P48544+P48549); test: (§2) Activation of human GIRK1/4 expressed in HEK293 cells co-expressing rat mGlu8 by thallium flux assay; assay type: cell-based
T3 sequence (P48549 whole entry): T1 sequence (P48549 whole entry)
T3 sequence (P48544 whole entry): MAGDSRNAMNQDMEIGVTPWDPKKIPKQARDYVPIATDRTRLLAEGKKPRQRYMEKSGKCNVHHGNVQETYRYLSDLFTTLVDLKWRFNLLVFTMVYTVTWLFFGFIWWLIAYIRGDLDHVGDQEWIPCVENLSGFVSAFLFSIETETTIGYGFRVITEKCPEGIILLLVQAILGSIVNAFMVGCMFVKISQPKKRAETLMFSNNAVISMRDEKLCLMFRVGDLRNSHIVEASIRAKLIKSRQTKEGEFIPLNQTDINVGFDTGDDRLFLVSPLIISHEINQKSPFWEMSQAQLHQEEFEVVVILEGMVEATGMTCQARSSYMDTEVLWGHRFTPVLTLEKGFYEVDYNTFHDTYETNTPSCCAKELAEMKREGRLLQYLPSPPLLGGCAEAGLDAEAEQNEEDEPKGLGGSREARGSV

[4] = target: Kir3.1/Kir3.4 (Homo sapiens) (UniProt P48549+P48544); test: Activation of human GIRK1/4 expressed in HEK293 cells co-expressing rat mGlu8 by thallium flux assay relative to control; assay type: cell-based
[5] = Fraction unbound in human plasma; assay type: ADME, cell-free
[6] = Half life in human liver S9 fraction; assay type: ADME, subcellular
[7] = Extraction ratio in human liver S9 fraction; assay type: ADME, subcellular; settings: read-out: ERH
[8] = Stability in mouse plasma; assay type: ADME, cell-free
Kir3.1/Kir3.2 [9] = target: T4, Kir3.1/Kir3.2 (Homo sapiens, UniProt P48549+P48051); test: as §1; assay type: cell-based; settings: hek293
T4 sequence (P48549 whole entry): T1 sequence (P48549 whole entry)
T4 sequence (P48051 whole entry): T1 sequence (P48051 whole entry)

Kir3.1/Kir3.4 [10] = target: T5, Kir3.1/Kir3.4 (Homo sapiens, UniProt P48549+P48544); test: as §2; assay type: cell-based; settings: hek293
T5 sequence (P48549 whole entry): T1 sequence (P48549 whole entry)
T5 sequence (P48544 whole entry): T3 sequence (P48544 whole entry)

[11] = target: T2, Kir3.1/Kir3.2 (Homo sapiens); test: as §1; assay type: cell-based
Homo sapiens = species on record: Homo sapiens; test: Ratio of EC50 for activation of human GIRK1/4 expressed in HEK293 cells co-expressing rat mGlu8 by thallium flux assay to EC50 for Activation of human GIRK1/2 expressed in HEK293 cells co-expressing rat mGlu8 by thallium flux assay; assay type: cell-based
[12] = Clearance in human liver microsomes
[13] = Clearance in mouse liver microsomes

Row | Compound | EC50 (Kir3.1/Kir3.2 [1]) [nM] | Emax [2] | EC50 (Kir3.1/Kir3.4 [3]) [nM] | Emax [4] | Fu [5] [%] | t1/2 [6] [h] | hepatic extraction ratio [7] | Stability [8] | EC50 (Kir3.1/Kir3.2 [9]) | EC50 (Kir3.1/Kir3.4 [10]) | Activity [11] | Ratio EC50 (Homo sapiens) | CLhep predicted [12] [mL/min/kg] | CLhep predicted [13] [mL/min/kg]
1 | Cc1cc(NC(=O)Cn2nnc(-c3ccccc3)n2)n(C2CCS(=O)(=O)C2)n1 (centres undefined) | 1030 | 93% | 2170 | 75% | 3.7 | 10.79 | < 0.05 | Unstable | – | – | – | – | – | –
2 | O=C(Cn1nnc(-c2ccccc2)n1)Nc1cc(C2(C(F)(F)F)CC2)nn1C1CCCCC1 | – | inactive | – | inactive | – | – | – | – | Not Active | Not Active | – | – | – | –
3 | Cc1cc(N(C)C(=O)Cn2nnc(-c3ccccc3)n2)n(C2CCCCC2)n1 | – | – | – | – | – | – | – | – | – | – | inactive | – | – | –
4 | Cc1cc(NC(=O)Cn2nnc(-c3cccc(Cl)c3)n2)n(C2CCCCC2)n1 | 300 | 89% | 662 | 66% | – | – | – | – | – | – | – | 3 to 5 | – | –
5 | Cc1cc(NC(=O)Cn2nnc(-c3cccc(F)c3)n2)n(C2CCCCC2)n1 | – | 96% | – | 80% | 1 | – | – | Unstable | – | – | – | 3 to 5 | 17.8 | 87.1
6 | Cc1nc(NC(=O)Cn2nnc(-c3ccccc3)n2)n(-c2ccccc2)n1 | – | inactive | – | inactive | – | – | – | – | Not Active | Not Active | – | – | – | –
7 | Cc1cc(NC(=O)Cn2nncc2-c2ccccc2)n(C2CCCCC2)n1 | 375 | 87% | 1030 | 49% | 0.4 | – | – | Unstable | – | – | – | – | 18.3 | 87.7
8 | Cc1cc(NC(=O)Cn2cc(-c3ccccc3)nn2)n(C2CCCCC2)n1 | 116 | 87% | 412 | 76% | 3 | – | – | Unstable | – | – | – | – | 14.6 | 78.2
9 | Cc1cc(NC(=O)Cn2nnc(-c3ccccc3)n2)n(C2CCC(F)(F)CC2)n1 | 84 | 68% | 383 | 52% | 1.5 | – | – | Unstable | – | – | – | – | 15.9 | 80
10 | Cc1cc(NC(=O)Cn2nnc(-c3ccc(Cl)c(Cl)c3)n2)n(C2CCCCC2)n1 | 1220 | 84% | 2200 | 70% | < 0.3 | – | – | Unstable | – | – | – | 3 to 5 | 17.4 | 76
11 | Cc1cc(NC(=O)Cn2nnc(-c3ccc(F)c(F)c3)n2)n(C2CCCCC2)n1 | 116 | 93% | 392 | 79% | – | – | – | – | – | – | – | 3 to 5 | – | –
12 | Cc1nc(-c2ccccc2)c(NC(=O)Cn2nnc(-c3ccccc3)n2)s1 | – | inactive | – | inactive | – | – | – | – | Not Active | Not Active | – | – | – | –
13 | O=C(Cn1nnc(-c2ccccc2)n1)Nc1ccccn1 | – | inactive | – | inactive | – | – | – | – | Not Active | Not Active | – | – | – | –
14 | Cc1cc(NC(=O)Cn2nnc(-c3ccccc3)n2)n(C2CCCCC2)n1 | 96 | 92% | 259 | 63% | 1.1 | – | – | Unstable | – | – | – | 3 | 18.9 | 87
